The target in one assay is T1, ABCC3 (Homo sapiens, UniProt O15438).
T1 construct: made in house; host or cells: Sf21 insect cells, baculovirus (gift from Borst); plasma membrane vesicles
The experiment in a line: ATP-dependent transport of CLF into Sf21 membrane vesicles containing ABCC3. In kind it is biochemical. As for the experimental part:
The production of recombinant baculovirus was as described by de Waart et al. [Liver Int 2006 April; 26(3):362-368]. ABCC3 and ABCG2-recombinant baculovirus were a kind gift from Borst [Breedveld P. et al., Cancer Res 2004 Aug. 15; 64(16):5804-5811 and Borst P. et al., J Biol Chem 2001 Dec. 7; 276(49):46400-46407.]. ABCB11-recombinant baculovirus was a kind gift from Thompson [Thompson R J et al., Gastroenterology 2002 November; 123(5):1649-1658]. Sf21 cells grown at 27° C. were infected with ABCB11, ABCC2, ABCC3 and ABCG2-cDNA containing baculovirus. Cells were harvested at 2-4 days after infection. Membrane vesicle preparation was as described by de Waart et al. [Liver Int 2006 April; 26(3):362-368].
Transport studies with membrane vesicles were performed using the rapid filtration technique as described by Heijn M et al. [Am J Physiol 1992 January; 262(1 Pt 1):C104-C110]. Radiolabel was measured with a scintillation counter. When CLF was used as a probe, filters were placed in a glass tube, 0.1% Triton-X-100 was added and the tubes vortexed. Samples were pipetted in 96-well plates (Kartell, Noviglio, Italy) and the amount CLF quantitated by measurement of fluorescence at λexe 485 nm and λcm 520 nm using a NovoStar (BMG-labtech, Offenburg, Germany). […]

The target in the next assay is T2, NTCP (Homo sapiens, UniProt Q14973).
T2 construct: the coding region ligated into pcDNA5/FRT; expressed in transfected cells
T2 sequence (Q14973 1-349): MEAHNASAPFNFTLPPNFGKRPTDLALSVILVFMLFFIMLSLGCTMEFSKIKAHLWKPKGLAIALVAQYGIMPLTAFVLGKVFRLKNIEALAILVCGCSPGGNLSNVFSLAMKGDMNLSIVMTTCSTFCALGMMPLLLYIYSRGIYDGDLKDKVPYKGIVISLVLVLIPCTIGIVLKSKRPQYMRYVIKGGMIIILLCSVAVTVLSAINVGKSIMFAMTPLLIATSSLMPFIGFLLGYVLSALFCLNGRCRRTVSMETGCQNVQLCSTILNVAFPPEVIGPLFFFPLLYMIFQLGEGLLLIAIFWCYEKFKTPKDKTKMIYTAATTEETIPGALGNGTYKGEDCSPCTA
Put plainly: Inhibition by CLF of TC transport in CHO cells expressing NTCP. The settings on record: 0, 5 or 50 μmol/L CLF, 2.5 μmol/L TC. Type of assay: cell-based. On the procedure:
FIGS. 3A-3D relate to inhibition of transport activity of hepatocellular uptake transporters by CLF. CHO cells expressing NTCP, OATP1B1, OATP1B3 and OATP2B1 were incubated with 0, 5 or 50 μmol/L CLF and with the substrates, 2.5 μmol/L TC, 1 μmol/L estrone-3-sulfate, 10 μmol/L TC and 1 μmol/L estrone-3-sulfate, respectively. Data represent means±SD of triplicate determinations.
For all transport experiments, cells grown on 3 cm culture dishes were cultured for 24 hours in media supplemented with 5 mmol/L sodium-butyrate to increase expression levels of transfected transporters [Palermo D P et al., J Biotechnol 1991 June; 19(1):35-47]. • Transport experiments with uptake of radioactively labeled substrates: These experiments were performed as described by Huber R D et al. [Am J Physiol Cell Physiol 2007 February; 292(2):C795-C806]. • Transport experiments with uptake of CLF: Uptake was performed in the same buffers as for the radioactive substrates above. […] After complete solubilization, 1.5 ml was used to measure fluorescence in a Perkin-Elmer LS-5 luminescence-spectrometer set at λexe 486 nm (slit 10 nm) and λem 520 nm (slit 5 nm). Protein was determined with the bicinchoninic acid method using a kit from Interchim (Montfuçon, France). […]

Structures are written as SMILES.

T1 sequence (O15438 whole entry): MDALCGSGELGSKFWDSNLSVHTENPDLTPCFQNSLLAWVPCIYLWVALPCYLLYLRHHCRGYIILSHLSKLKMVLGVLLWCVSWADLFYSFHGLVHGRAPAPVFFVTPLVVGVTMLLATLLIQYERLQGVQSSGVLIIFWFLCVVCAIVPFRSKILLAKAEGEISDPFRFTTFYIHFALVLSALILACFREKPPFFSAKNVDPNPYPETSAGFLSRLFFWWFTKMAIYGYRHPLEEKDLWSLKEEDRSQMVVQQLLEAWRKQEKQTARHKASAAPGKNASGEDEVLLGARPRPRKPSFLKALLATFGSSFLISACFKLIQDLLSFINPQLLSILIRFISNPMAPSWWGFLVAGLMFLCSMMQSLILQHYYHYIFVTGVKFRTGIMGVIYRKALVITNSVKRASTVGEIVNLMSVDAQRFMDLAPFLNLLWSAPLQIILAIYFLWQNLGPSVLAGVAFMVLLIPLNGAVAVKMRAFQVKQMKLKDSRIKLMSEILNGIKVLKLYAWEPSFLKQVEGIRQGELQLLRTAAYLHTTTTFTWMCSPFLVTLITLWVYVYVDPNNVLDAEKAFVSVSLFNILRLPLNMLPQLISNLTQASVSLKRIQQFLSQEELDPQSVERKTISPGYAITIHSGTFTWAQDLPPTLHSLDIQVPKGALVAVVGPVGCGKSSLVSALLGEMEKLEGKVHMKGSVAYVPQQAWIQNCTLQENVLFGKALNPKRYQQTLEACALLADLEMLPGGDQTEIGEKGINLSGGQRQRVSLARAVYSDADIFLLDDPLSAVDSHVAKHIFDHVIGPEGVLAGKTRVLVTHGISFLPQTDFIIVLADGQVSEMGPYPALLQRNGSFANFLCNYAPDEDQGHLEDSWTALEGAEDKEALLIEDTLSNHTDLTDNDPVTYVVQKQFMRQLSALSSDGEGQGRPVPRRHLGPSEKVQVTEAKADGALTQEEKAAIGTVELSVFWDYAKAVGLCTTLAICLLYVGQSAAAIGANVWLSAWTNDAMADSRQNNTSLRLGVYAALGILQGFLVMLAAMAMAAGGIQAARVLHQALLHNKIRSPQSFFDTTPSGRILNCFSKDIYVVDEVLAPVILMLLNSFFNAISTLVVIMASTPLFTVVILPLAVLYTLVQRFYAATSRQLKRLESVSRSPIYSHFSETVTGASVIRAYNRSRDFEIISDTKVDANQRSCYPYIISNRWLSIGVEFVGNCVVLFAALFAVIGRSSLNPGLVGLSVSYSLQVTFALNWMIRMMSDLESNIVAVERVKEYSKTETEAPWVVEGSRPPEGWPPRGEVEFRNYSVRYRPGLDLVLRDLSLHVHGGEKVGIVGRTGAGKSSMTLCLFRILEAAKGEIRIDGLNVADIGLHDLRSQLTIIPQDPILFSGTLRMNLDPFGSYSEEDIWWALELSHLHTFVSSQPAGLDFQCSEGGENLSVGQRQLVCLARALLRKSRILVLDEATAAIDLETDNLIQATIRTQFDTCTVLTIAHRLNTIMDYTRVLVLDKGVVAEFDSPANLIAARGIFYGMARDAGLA

`CC(CCC(=O)NC(CCCCNC(=S)Nc1ccc(-c2c3ccc(=O)cc-3oc3cc(O)ccc23)c(C(=O)O)c1)C(=O)O)C1CCC2C3C(O)CC4CC(O)CCC4(C)C3CC(O)C12C` (stereo not drawn) [CLF, cholyl lysyl fluorescein]: on ABCC3 (30 μg total protein, presence or absence of 4 mmol/L ATP), the “Vmax of ABCC3 mediated transport of CLF” value was 188±55 μmol CLF/mg protein/min. In addition, the “CLF transport in ABCC3 containing membrane vesicles” value at ABCC3 (compared to control wild type Sf21 membrane vesicles) is given as “much higher CLF transport rates”. Further, at NTCP, the “inhibition of transport of TC via NTCP by CLF” value is “very efficiently inhibited”.

The values above are taken from patent publication US8318504B2, “MRP2 efflux pathway prognostic method” (priority 2009, dated 2012).
